The subject of one test is primary human T-cells. Kind of test: IL2 secretion measurements in CD3-stimulated T-cells. The class given is cell-based. The note with it: CD3 condition; for Emax / EC50: Homo sapiens, T-cell, 24 h; for Emax: read-out: Emax IL2 (% activation); for EC50: IL2 secretion after 24 hours, read-out: Tcell IL2 CD3 EC50. How it is done: As readouts for T-cell activation, IL2 secretion after 24 hours and proliferation after 5 days was measured. Increases in IL2 secretion and proliferation upon compound treatment were assessed as the % of the maximum of reference compound A1. WO 2016/139181 discloses reference compound A1 as example 70. As a counter screen and to make sure that no unwanted TCR-independent activation was triggered, PBS conditions were run for all compounds.
Expanded primary human T-cells were thawed and cultured in RPMI 1640 (Gibco, #61870-010)+5% human serum (HS, Sigma, #H3667)+1 mM Sodium Pyruvate (Gibco, #11360-039)+50 μM 2-mercaptoethanol (Gibco, #31350-010) and 1× Pen-Strep (Life Technologies, #15140122) medium at density of 2 Mio/ml for 3 hours in 5% CO2, 37° C. and 95% humidity. For coating of plates, […] or PBS++ with CD3 antibody (concentration depending on donor and determined by CD3 titrations) was added 100 μl/well to Poly-D Lysine coated 96-well plates. Plates were sealed and incubated at room temperature for 3 hours on a table-top rocking platform. After incubation, plates were washed once with PBS−− and filled with 40 μl/well culture medium only. Compounds were then added (see next section) to medium only plates. After 3 hours of culturing the T-cells, cells were filtered through a cell strainer (Miltenyi Biotech, #130-041-407), counted again and concentration was adjusted to 1.25 Mio/ml.
Cells were then seeded 80 μl/well to the 40 μl/well including dispensed compounds according to plate layout. By adding cells, compounds were further diluted 1:3, and resulting in 100k cells/120 µl/well. After 24 hours 40 μl of supernatant was collected carefully from the top while not disturbing the cells and transferred into a round bottom 96 well plate. Collected and frozen supernatant was used for detection of IL2 using the IL-2 Human ProQuantum Immunoassay Kit (Invitrogen) or using the Human IL-2 ELISA Kit (Thermo Fisher).
Compound Treatment Compounds were added in a 5 or 6 pt dose response with the Tecan D300e Digital Dispenser, all conditions 3 times more concentrated than the end-concentration, since cells are added afterwards (80p1 cells to 40p1 prepared medium with treatment). The DR was starting at 20 μM or 10 μM final top concentration and a dilution factor of 3.333. The positive control was the reference compound A1 that was added in a dose response as well, additionally to 3 wells of only 20 μM representing the positive stimulator control. All wells were normalized with DMSO to a final concentration of 0.6% (0.2% end-concentration).
The immunoassay is done following the manufacturer's manual (Invitrogen, #A35603).
Additional information: For the immunoassay, MicroAmp™ EnduraPlate™ Optical 384-Well plates are used. Frozen supernatant is thawed and centrifuged for 5 minutes at 1000×g, both steps at 4° C. After centrifugation, required sample amount is taken from the top, and in a separate LightCycler V-bottom plate (working plate) diluted with assay dilution buffer, dilution factor depending on the PBS or CD3 condition but at least 1:3. IL-2 standard and blanks are prepared in the same V-bottom plate, standard with a range of 0.0128-5000 pg/ml (extended version). After preparation, 5 μl of sample dilutions or standard/blanks are transferred to the optical 384-well plate (assay plate) and the 10 μl reaction protocol is being followed. For measurement, the QuantStudio 12K Flex system is used. Raw data is extracted and IL-2 concentrations are calculated with the Thermo Fisher online app (apps.thermofisher.com/apps/proquantum).
ELISA is done following the manufacturer's manual (Thermo Fisher Scientific, #88-7025-88). Additional information: For the ELISA Nunc MaxiSorp 96 well plates are used. Frozen supernatant is thawed and centrifuged for 5 minutes at 1000×g, both steps at 4° C. […]

The next test addresses DGKalpha (Homo sapiens, UniProt P23743). Kind of test: In vitro DGK inhibition assay (ADP-Glo, liposomes), DGKalpha. The note with it: 4 nM DGK α, 25 μM ATP, 125 uM DLG in liposomes, 1 hour reaction. The class given is biochemical. On the set-up: hDGKalpha(1-735)-N-His; His (N); made in house; host or cells: Sf21 insect cells (baculovirus). How it is done:
DGK α and ζ kinases use ATP to phosphorylate the substrate 1,2-dilauroyl-sn-glycerol (DLG, incorporated in the liposomes). ATP is converted to ADP as a result of this enzymatic reaction. After the kinase reaction, an ATP-depletion reagent is added to terminate the kinase reaction and deplete any remaining ATP, leaving only ADP. Second, a detection reagent is added to simultaneously convert ADP to ATP and allow the newly synthesized ATP to be converted to light using a coupled luciferase/luciferin reaction.
Full length DGKA and Z were expressed in Sf21 insect cells by infecting the cells with the baculovirus stock at MOI of 2. Purification of both enzymes was performed as previously described by Takahashi et al., PeerJ, 2018 (Takahashi, D.; Sakane, F. Expression and purification of human diacylglycerol kinase alpha from baculovirus-infected insect cells for structural studies. PeerJ 2018, 6, No. e5449).
A concentrated liposome solution was prepared in assay buffer without DTT and BSA: 2 mM of DLG in 21 mM of total liposome (2 mM DLG/8 mM PS/11 mM PC). The reaction mixtures contain the assay buffer with a final DLG concentration of 125 uM ATP concentrations of 25 μM (for DGKA assay) or 50 μM (for DGKZ assay). The reactions were started by addition of DGK a and (kinases at 4 nM and 2 nM final concentrations, respectively. After 1 hour reaction, the amount of ADP formed was detected with the ADP-Glo kinase assay (Promega) according to the manufacturer instructions. Compounds were added in 11-points dose response, starting at […], 1:3 dilutions, with a final DMSO concentration of 2%. The multidrop combi was used as a liquid handler and luminescence was read with 0.5 s by the envision reader (PE).
Background: ADP-Glo first removes unused ATP, then detects ADP through luciferase.

Where [1] appears, read: IL2 after 24 hours, 20 μM reference compound A1 = 100%.

Sequence of DGKalpha (P23743 whole entry): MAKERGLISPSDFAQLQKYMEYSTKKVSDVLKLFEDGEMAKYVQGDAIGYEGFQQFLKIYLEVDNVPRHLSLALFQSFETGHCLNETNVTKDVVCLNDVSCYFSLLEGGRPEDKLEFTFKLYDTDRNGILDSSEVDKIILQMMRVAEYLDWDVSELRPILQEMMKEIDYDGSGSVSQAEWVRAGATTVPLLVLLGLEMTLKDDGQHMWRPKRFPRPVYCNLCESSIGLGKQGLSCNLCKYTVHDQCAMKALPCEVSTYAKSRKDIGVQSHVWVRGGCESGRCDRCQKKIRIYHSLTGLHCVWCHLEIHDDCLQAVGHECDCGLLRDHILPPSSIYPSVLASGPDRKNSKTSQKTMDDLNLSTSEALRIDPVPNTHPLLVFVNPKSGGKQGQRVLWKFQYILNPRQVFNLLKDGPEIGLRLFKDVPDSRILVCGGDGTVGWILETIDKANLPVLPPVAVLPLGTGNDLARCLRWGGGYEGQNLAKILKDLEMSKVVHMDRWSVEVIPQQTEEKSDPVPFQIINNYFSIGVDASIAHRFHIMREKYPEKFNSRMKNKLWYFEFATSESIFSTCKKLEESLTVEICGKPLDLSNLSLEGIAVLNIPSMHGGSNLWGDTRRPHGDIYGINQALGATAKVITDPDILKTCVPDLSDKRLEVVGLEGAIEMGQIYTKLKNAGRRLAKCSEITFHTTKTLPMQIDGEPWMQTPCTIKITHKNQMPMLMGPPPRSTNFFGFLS

As to `CC(C)(c1nnc(-c2cc3c(cc2F)S(=O)(=O)C[C@H](N)C(=O)N3Cc2ccc(Oc3ccccc3)cc2)o1)S(C)(=O)=O` [Example 27, (3R)-3-amino-8-fluoro-7-[5-(1-methyl-1-methylsulfonyl-ethyl)-1,3,4-oxadiazol-2-yl]-1,1-dioxo-5-[(4-phenoxyphenyl)methyl]-2,3-dihydro-1λ6,5-benzothiazepin-4-one], the Emax in the test with primary human T-cells (setting [1]) came out at 215%. The EC50 in the test on primary human T-cells stood at 2600 nM. Further, the IC50 on DGKalpha was 483 nM.
Consider `CN(Cc1ccccc1)c1ccc(CN2C(=O)[C@@H](N)CS(=O)(=O)c3ccc(-c4nnc(C(C)(C)S(C)(=O)=O)o4)cc32)cc1` [Example 15, (3R)-3-amino-5-[[4-[benzyl(methyl)amino]phenyl]methyl]-7-[5-(1-methyl-1-methylsulfonyl-ethyl)-1,3,4-oxadiazol-2-yl]-1,1-dioxo-2,3-dihydro-1λ6,5-benzothiazepin-4-one], for which, in the test on primary human T-cells (setting [1]), the maximum response (Emax) was 99%. Besides, the EC50 in the test on primary human T-cells was determined as 3530 nM. Further, at DGKalpha, the IC50 amounted to 274 nM.
For `CC(C)(c1nnc(-c2ccc3c(c2)N(Cc2ccc(-c4ccc(C(F)(F)F)cc4)nc2)C(=O)[C@@H](N)CS3(=O)=O)o1)S(C)(=O)=O` [Example 57, (3R)-3-amino-7-[5-(1-methyl-1-methylsulfonyl-ethyl)-1,3,4-oxadiazol-2-yl]-1,1-dioxo-5-[[6-[4-(trifluoromethyl)phenyl]-3-pyridyl]methyl]-2,3-dihydro-1λ6,5-benzothiazepin-4-one], in that order: 53%, 9140 nM and 27200 nM.
For the compound `CC(C)(c1nc(-c2cc3c(cc2F)[S+]([O-])C[C@H](N)C(=O)N3Cc2ccc(Oc3ccccc3)cc2)no1)S(C)(=O)=O` (stereo partly drawn) [Example 51, (3R)-3-amino-8-fluoro-7-[5-(1-methyl-1-methylsulfonyl-ethyl)-1,2,4-oxadiazol-3-yl]-1-oxo-5-[(4-phenoxyphenyl)methyl]-2,3-dihydro-1λ4,5-benzothiazepin-4-one], the “Emax IL2 (% activation)” value in the test with primary human T-cells (setting [1]) was 101%. In the test on primary human T-cells, the EC50 was 897 nM. The compound further yielded an IC50 against DGKalpha of 2290 nM.
For `CC(C)(c1nnc(-c2ccc3c(c2)N(Cc2ccc(Oc4cccc(Br)c4)cc2)C(=O)[C@@H](N)CS3(=O)=O)o1)S(C)(=O)=O` [Example 60, (3R)-3-amino-5-[[4-(3-bromophenoxy)phenyl]methyl]-7-[5-(1-methyl-1-methylsulfonyl-ethyl)-1,3,4-oxadiazol-2-yl]-1,1-dioxo-2,3-dihydro-1λ6,5-benzothiazepin-4-one], the Emax with primary human T-cells (setting [1]) turned out to be 106%. Also, the EC50 in the test with primary human T-cells is 1180 nM. This compound also yielded an IC50 on DGKalpha of 3800 nM.
For `CC(C)(c1nc(-c2cc3c(cc2F)S(=O)(=O)C[C@H](N)C(=O)N3Cc2ccc(OCc3nc(C(F)(F)F)no3)cc2)no1)S(C)(=O)=O` [Example 59, (3R)-3-amino-8-fluoro-7-[5-(1-methyl-1-methylsulfonyl-ethyl)-1,2,4-oxadiazol-3-yl]-1,1-dioxo-5-[[4-[[3-(trifluoromethyl)-1,2,4-oxadiazol-5-yl]methoxy]phenyl]methyl]-2,3-dihydro-1λ6,5-benzothiazepin-4-one], in that order: 135%, 4270 nM and 1850 nM.
The like results for `Cc1cccc(Oc2ccc(CN3C(=O)[C@@H](N)CS(=O)(=O)c4ccc(-c5nnc(C(C)(C)S(C)(=O)=O)o5)cc43)cc2)c1` [Example 31] were, in that order, 176%, 745 nM and 1780 nM.
As to `CC(C)(c1nnc(-c2ccc3c(c2)N(Cc2ccc(-c4ccc(C(F)(F)F)cc4)cc2)C(=O)[C@@H](N)CS3(=O)=O)o1)S(=O)(=O)N1CCCC1` [Example 67, (3R)-3-amino-7-[5-(1-methyl-1-pyrrolidin-1-ylsulfonyl-ethyl)-1,3,4-oxadiazol-2-yl]-1,1-dioxo-5-[[4-[4-(trifluoromethyl)phenyl]phenyl]methyl]-2,3-dihydro-1λ6,5-benzothiazepin-4-one], the Emax with primary human T-cells (setting [1]) was 71%. Besides, in the test on primary human T-cells, the EC50 turned out to be 1760 nM. On DGKalpha, the half-maximal inhibitory concentration (IC50) is more than 62500 nM.
On to `COCC(C)(C)Oc1ccc(CN2C(=O)[C@@H](N)CS(=O)(=O)c3cc(F)c(-c4noc(C(C)(C)S(C)(=O)=O)n4)cc32)cc1` [Example 62, (3R)-3-amino-8-fluoro-5-[[4-(2-methoxy-1,1-dimethyl-ethoxy)phenyl]methyl]-7-[5-(1-methyl-1-methylsulfonyl-ethyl)-1,2,4-oxadiazol-3-yl]-1,1-dioxo-2,3-dihydro-benzothiazepin-4-one], for which, in the test with primary human T-cells (setting [1]), the Emax came out at 169%. Besides, in the test with primary human T-cells, the EC50 came to 3350 nM. In addition, it took 1070 nM to reach half-maximal inhibition at DGKalpha (IC50).
For the compound `CS(=O)(=O)Cn1nnnc1-c1cc2c(cc1F)S(=O)(=O)C[C@H](N)C(=O)N2Cc1ccc(Oc2ccccc2)cc1` [Example 55, (3R)-3-amino-8-fluoro-7-[1-(methylsulfonyl-methyl)tetrazol-5-yl]-1,1-dioxo-5-[(4-phenoxyphenyl)methyl]-2,3-dihydro-1λ6,5-benzothiazepin-4-one], the Emax in the test with primary human T-cells (setting [1]) turned out to be 85%. Further, the EC50 in the test with primary human T-cells was determined as 4180 nM. At DGKalpha, this compound displayed an IC50 of 18300 nM.
As for `CC(C)(c1nnc(-c2ccc3c(c2)N(Cc2ccc(-c4ccc(C(F)(F)F)cn4)cc2)C(=O)[C@@H](N)CS3(=O)=O)o1)S(C)(=O)=O` [Example 10], the maximal effect (Emax) with primary human T-cells (setting [1]) was determined as 174%. Also, the EC50 in the test on primary human T-cells stood at 1770 nM. The same compound had an IC50 at DGKalpha of 1020 nM.
The like results for `CC(C)(c1nnc(-c2ccc3c(c2)N(Cc2ccc(-c4ccc(C#N)cc4)cc2)C(=O)[C@@H](N)CS3(=O)=O)o1)S(C)(=O)=O` [Example 20, 4-[4-[[(3R)-3-amino-7-[5-(1-methyl-1-methylsulfonyl-ethyl)-1,3,4-oxadiazol-2-yl]-1,1,4-trioxo-2,3-dihydro-1λ6,5-benzothiazepin-5-yl]methyl]phenyl]benzonitrile] were, in that order, 77%, 5000 nM and 1380 nM.

As usually defined, the Emax is the size of the effect at its maximum, as opposed to the concentration needed. The term EC50 denotes the midpoint of the concentration-response curve. A word on the IC50: it is the concentration needed to halve the response being measured. The low end stands for higher potency, the high end for lower potency.

The values are drawn from patent US20260035364A1, “BICYCLIC TETRAHYDROTHIAZEPINE DERIVATIVES” (Hoffmann-La Roche Inc., priority 2022, published 2026).
